Where two headings read alike, the source gives them in different places.
Tests used:
[1] = target: Mcl-1 (Homo sapiens (Human), UniProt Q07820); assay: Fluorescence polarization anisotropy (FPA) competition assay, FITC-Bak or FITC-Bim BH3 peptide; type: binding; details: read-out: Ki for Inhibition of Mcl-1 by FPA assay
[2] = tested on: H929 human cancer cell lines; assay: Cellular viability / proliferation (Cell TiterGlo, 72 h); type: cell-based
Procedure, shortened: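 1,000 cells/well, 10% FBS medium; compound added at 24 h, 2-fold dilutions from 50 μM top, DMSO <1% final. 72 h exposure, CellTiterGlo 30 min RT dark, luminescence read. IC50 by 4-parameter fit.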

[3] = Homo sapiens, NCI-H929, 72 h, read-out: GI50 on cellular proliferation of H929 human cancer cell lines, H929 cells, 72 h, Cell TiterGlo, 10% FBS
[4] = H929 cells, 72 h, Cell TiterGlo, 10% FBS, read-out: GI50 on cellular proliferation of H929 human cancer cell lines

Chain of Mcl-1 (Q07820 172-327): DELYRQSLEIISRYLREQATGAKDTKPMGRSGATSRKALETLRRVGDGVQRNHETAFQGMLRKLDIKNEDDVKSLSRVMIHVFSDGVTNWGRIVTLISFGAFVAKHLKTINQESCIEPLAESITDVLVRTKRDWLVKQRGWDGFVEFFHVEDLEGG

Compound	Ki [1]	GI50 [2, 3]	GI50 [2, 4]
Cc1cc(OCCCc2c3n(c4c(-c5c(C)nn(C)c5C)c(Cl)ccc24)[C@H](C)CN(c2cn(C)c4cc(C(=N)NO)ccc24)C3=O)cc(C)c1Cl [Example 335, (R)-3-(7-Chloro-10-(3-(4-chloro-3,5-dimethylphenoxy)propyl)-4-methyl-1-oxo-6-(1,3,5-trimethyl-1H-pyrazol-4-yl)-3,4-dihydropyrazino[1,2-a]indol-2(1H)-yl)-N-hydroxy-1-methyl-1H-indole-6-carboximidamide]	4.5 nM	910 nM	
Cc1cc(N2C[C@@H](C)n3c(c(CCCOc4cc(C)c(Cl)c(C)c4)c4ccc(Cl)c(-c5c(C)nn(CCN6CCCC6)c5C)c43)C2=O)c2c(c1)cc(C(=O)O)n2C [Example 463, (R)-7-(7-Chloro-10-(3-(4-chloro-3,5-dimethylphenoxy)propyl)-6-(3,5-dimethyl-1-(2-(pyrrolidin-1-yl)ethyl)-1H-pyrazol-4-yl)-4-methyl-1-oxo-3,4-dihydropyrazino[1,2-a]indol-2(1H)-yl)-1,5-dimethyl-1H-indole-2-carboxylic acid]	2.1 nM	290 nM	
CC[C@@H]1Cn2c(c(CCCOc3cc(C)c(Cl)c(C)c3)c3ccc(Cl)c(-c4c(C)nn(C)c4C)c32)C(=O)N1c1ccc(C(=O)O)cc1 [Example 23, (R)-4-(7-chloro-10-(3-(4-chloro-3,5-dimethylphenoxy)propyl)-3-ethyl-1-oxo-6-(1,3,5-trimethyl-1H-pyrazol-4-yl)-3,4-dihydropyrazino[1,2-a]indol-2(1H)-yl)benzoic acid]	< 1 nM	4900 nM	
Cc1cc(OCCCc2c3n(c4c(-c5c(C)nn(C)c5C)c(Cl)ccc24)[C@H](C)CN(c2cc(C(=O)O)c4cnn(C(C)C)c4c2)C3=O)cc(C)c1Cl [Example 131, 6-[(4R)-7-chloro-10-[3-(4-chloro-3,5-dimethyl-phenoxy)propyl]-4-methyl-1-oxo-6-(1,3,5-trimethylpyrazol-4-yl)-3,4-dihydropyrazino[1,2-a]indol-2-yl]-1-isopropyl-indazole-4-carboxylic acid]	< 1 nM	1900 nM	
Cc1ccnc(Cn2c(C(=O)O)cc3cc(C)cc(N4C[C@@H](C)n5c(c(CCCOc6cc(C)c(Cl)c(C)c6)c6ccc(Cl)c(-c7c(C)nn(C)c7C)c65)C4=O)c32)c1 [Example 456, (R)-7-(7-Chloro-10-(3-(4-chloro-3,5-dimethylphenoxy)propyl)-4-methyl-1-oxo-6-(1,3,5-trimethyl-1H-pyrazol-4-yl)-3,4-dihydropyrazino[1,2-a]indol-2(1H)-yl)-5-methyl-1-((4-methylpyridin-2-yl)methyl)-1H-indole-2-carboxylic acid]	< 1 nM	< 200 nM	
Cc1cc(OCCCc2c3n(c4c(-c5c(C)nn(C)c5C)c(Cl)ccc24)[C@H](C)CN(c2ccc4nc(C(=O)O)ccc4c2)C3=O)cc(C)c1Cl [Example 102, (R)-6-(7-Chloro-10-(3-(4-chloro-3,5-dimethylphenoxy)propyl)-4-methyl-1-oxo-6-(1,3,5-trimethyl-1H-pyrazol-4-yl)-3,4-dihydropyrazino[1,2-a]indol-2(1H)-yl)quinoline-2-carboxylic acid]	1.5 nM	4900 nM	
Cc1cc(OCCCc2c3n(c4c(-c5c(C)nn(C)c5C)c(Cl)ccc24)CCCN(c2cc(C(=O)O)cc4c2cnn4C)C3=O)cc(C)c1Cl [Example 45, 4-[8-chloro-11-[3-(4-chloro-3,5-dimethyl-phenoxy)propyl]-1-oxo-7-(1,3,5-trimethylpyrazol-4-yl)-4,5-dihydro-3H-[1,4]diazepino[1,2-a]indol-2-yl]-1-methyl-indazole-6-carboxylic acid]	1.7 nM	3800 nM	
Cc1cc(OCCCc2c3n(c4c(-c5c(C)n[nH]c5C)c(Cl)ccc24)CCCN(c2cc(C(=O)O)c4cnn(C)c4c2)C3=O)cc(C)c1Cl [Example 95, 6-(8-Chloro-1-(3-(4-chloro-3,5-dimethylphenoxy)propyl)-7-(3,5-dimethyl-1H-pyrazol-4-yl)-1-oxo-4,5-dihydro-1H-[1,4]diazepino[1,2-a]indol-2(3H)-yl)-1-methyl-1H-indazole-4-carboxylic acid]	< 1 nM		10000 nM
Cc1cc(OCCCc2c3n(c4c(-c5c(C)nn(C)c5C)c(Cl)ccc24)[C@H](C)CN(c2cc(O)cc4c2cc(C(=O)O)n4C)C3=O)cc(C)c1Cl [Example 305, (M, R)-4-(7-chloro-10-(3-(4-chloro-3,5-dimethylphenoxy)propyl)-4-methyl-1-oxo-6-(1,3,5-trimethyl-1H-pyrazol-4-yl)-3,4-dihydropyrazino[1,2-a]indol-2(1H)-yl)-6-hydroxy-1-methyl-1H-indole-2-carboxylic acid]	< 1 nM		6200 nM
Cc1cc(OCCCc2c3n(c4c(-c5c(C)nn(C)c5C)c(Cl)ccc24)[C@H](C)CN(c2cn(C)c4ccc(-c5noc(=O)[nH]5)cc24)C3=O)cc(C)c1Cl [Example 442, (R)-3-(3-(7-Chloro-10-(3-(4-chloro-3,5-dimethylphenoxy)propyl)-4-methyl-1-oxo-6-(1,3,5-trimethyl-1H-pyrazol-4-yl)-3,4-dihydropyrazino[1,2-a]indol-2(1H)-yl)-1-methyl-1H-indol-5-yl)-1,2,4-oxadiazol-5(4H)-one]	2.3 nM	230 nM	
(R)-4-(7-chloro-10-(3-(4-chloro-3,5-dimethylphenoxy)propyl)-4-methyl-1-oxo-6-(1,3,5-trimethyl-1H-pyrazol-4-yl)-3,4-dihydropyrazino[1,2-a]indol-2(1H)-yl)-2-methyl-2H-indazole-1-carboxylic acid [Example 97]	< 1 nM		3400 nM
CC(=O)Nc1ccc2c(c1)c(N1C[C@@H](C)n3c(c(CCCOc4cc(C)c(Cl)c(C)c4)c4ccc(Cl)c(-c5c(C)nn(C)c5C)c43)C1=O)cn2C [Example 257, N-[3-[(4R)-7-chloro-10-[3-(4-chloro-3,5-dimethyl-phenoxy)propyl]-4-methyl-1-oxo-6-(1,3,5-trimethylpyrazol-4-yl)-3,4-dihydropyrazino[1,2-a]indol-2-yl]-1-methyl-indol-5-yl]acetamide]	2.3 nM	470 nM	
CNC(=O)c1ccc2c(c1)c(N1C[C@@H](C)n3c(c(CCCOc4cc(C)c(Cl)c(C)c4)c4ccc(Cl)c(-c5c(C)nn(C)c5C)c43)C1=O)cn2C [Example 286, (R)-3-(7-chloro-10-(3-(4-chloro-3,5-dimethylphenoxy)propyl)-4-methyl-1-oxo-6-(1,3,5-trimethyl-1H-pyrazol-4-yl)-3,4-dihydropyrazino[1,2-a]indol-2(1H)-yl)-N,1-dimethyl-1H-indole-5-carboxamide]	3.3 nM	510 nM	
Cc1cc(OCCCc2c3n(c4c(-c5c(C)n[nH]c5C)c(Cl)ccc24)[C@H](C)CN(c2cn(C)c4c(C)cc(C(=O)O)cc24)C3=O)cc(C)c1Cl [Example 160, (R)-3-(7-chloro-10-(3-(4-chloro-3,5-dimethylphenoxy)propyl)-6-(3,5-dimethyl-1H-pyrazol-4-yl)-4-methyl-1-oxo-3,4-dihydropyrazino[1,2-a]indol-2(1H)-yl)-1,7-dimethyl-1H-indole-5-carboxylic acid]	1.1 nM	690 nM	
Cc1cc(N2C[C@@H](C)n3c(c(CCCOc4cc(C)c(Cl)c(C)c4)c4ccc(Cl)c(-c5c(C)nn(CC6CCOCC6)c5C)c43)C2=O)c2c(c1)cc(C(=O)O)n2C [Example 452, (R)-7-(7-Chloro-10-(3-(4-chloro-3,5-dimethylphenoxy)propyl)-6-(3,5-dimethyl-1-((tetrahydro-2H-pyran-4-yl)methyl)-1H-pyrazol-4-yl) 4-methyl-1-oxo-3,4-dihydropyrazino[1,2-a]indol-2(1H)-yl)-1,5-dimethyl-1H-indole-2-carboxylic acid]	2.2 nM	380 nM	
Cc1cc(OCCCc2c3n(c4c(-c5c(C)nc(CN6CCC(O)C6)nc5C)c(Cl)ccc24)[C@H](C)CN(c2cn(C)c4ccc(C(=O)O)cc24)C3=O)cc(C)c1Cl (stereo partly drawn) [Example 397, 3-((4R)-7-Chloro-10-(3-(4-chloro-3,5-dimethylphenoxy)propyl)-6-(2-((3-hydroxypyrrolidin-1-yl)methyl)-4,6-dimethylpyrimidin-5-yl)-4-methyl-1-oxo-3,4-dihydropyrazino[1,2-a]indol-2(1H)-yl)-1-methyl-1H-indole-5-carboxylic acid]	1.2 nM	340 nM	
Cc1cc(OCCCc2c3n(c4c(-c5c(C)nn(C)c5C)c(Cl)ccc24)[C@H](C)CN(c2ccc4cnoc4c2)C3=O)cc(C)c1Cl [Example 115, (R)-2-(benzo[d]isoxazol-6-yl)-7-chloro-10-(3-(4-chloro-3,5-dimethylphenoxy)propyl)-4-methyl-6-(1,3,5-trimethyl-1H-pyrazol-4-yl)-3,4-dihydropyrazino[1,2-a]indol-1(2H)-one]	3.1 nM	5100 nM	
Cc1cc(OCCCc2c3n(c4c(-c5c(C)nn(C)c5C)c(Cl)ccc24)CCCN(c2cccc4c(C(=O)O)nn(C)c24)C3=O)cc(C)c1Cl [Example 13, 7-[8-Chloro-11-[3-(4-chloro-3,5-dimethyl-phenoxy)propyl]-1-oxo-7-(1,3,5-trimethylpyrazol-4-yl)-4,5-dihydro-3H-[1,4]diazepino[1,2-a]indol-2-yl]-1-methyl-indazole-3-carboxylic acid]	< 1 nM	4500 nM	
Cc1cc(OCCCc2c3n(c4c(-c5c(C)nn(C)c5C)c(Cl)ccc24)[C@H](C)CN(c2cccc4c(Cl)cc(C(=O)O)nc24)C3=O)cc(C)c1Cl [Example 230, (R)-4-Chloro-8-(7-chloro-10-(3-(4-chloro-3,5-dimethylphenoxy)propyl)-4-methyl-1-oxo-6-(1,3,5-trimethyl-1H-pyrazol-4-yl)-3,4-dihydropyrazino[1,2-a]indol-2(1H)-yl)quinoline-2-carboxylic acid]	< 1 nM	890 nM	
